Here are results for two compounds from publication PMC8546428, “Convergent olfactory trace amine-associated receptors detect biogenic polyamines with distinct motifs via a conserved binding site” (The Journal of Biological Chemistry, 2021).

For one assay, the target named is T1, mTAAR9 Y6.51W (Mus musculus, UniProt Q5QD04, Y274W).
T1 construct: expressed in transfected cells; host or cells: Hana3A (HEK293-derived)
T1 sequence (Q5QD04 1-348 Y274W): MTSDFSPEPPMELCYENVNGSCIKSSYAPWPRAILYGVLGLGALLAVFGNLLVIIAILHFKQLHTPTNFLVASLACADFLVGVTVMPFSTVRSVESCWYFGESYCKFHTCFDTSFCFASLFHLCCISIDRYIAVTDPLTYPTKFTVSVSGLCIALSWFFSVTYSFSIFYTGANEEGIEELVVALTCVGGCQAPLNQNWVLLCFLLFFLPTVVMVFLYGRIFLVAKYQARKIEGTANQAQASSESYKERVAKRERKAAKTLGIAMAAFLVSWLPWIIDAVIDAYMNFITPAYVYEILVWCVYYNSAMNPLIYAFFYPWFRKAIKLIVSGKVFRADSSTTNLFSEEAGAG
Kind of assay: CRE-luciferase reporter assay, mTAAR9 mutant in Hana3A. Particulars: read-out: EC50 (mean ± S.D., n = 3). In kind it is cell-based.

Another assay concerns the target T2, mTAAR9 E7.36D (Mus musculus, UniProt Q5QD04, E294D).
T2 construct: expressed in transfected cells; host or cells: Hana3A (HEK293-derived)
T2 sequence (Q5QD04 1-348 E294D): T1 sequence (Q5QD04 1-348 Y274W) with W274Y, E294D
Described as above. Type of assay: cell-based. The settings on record: read-out: EC50 (mean ± S.D., n = 3).

Another assay has as its target T3, mTAAR9 W7.40F (Mus musculus, UniProt Q5QD04, W298F).
T3 construct: expressed in transfected cells; host or cells: Hana3A (HEK293-derived)
T3 sequence (Q5QD04 1-348 W298F): T1 sequence (Q5QD04 1-348 Y274W) with W274Y, W298F
The description is as above. In kind it is cell-based. The settings on record: read-out: EC50 (mean ± S.D., n = 3).

A further assay addresses T4, mTAAR9 W7.40A (Mus musculus, UniProt Q5QD04, W298A).
T4 construct: expressed in transfected cells; host or cells: Hana3A (HEK293-derived)
T4 sequence (Q5QD04 1-348 W298A): T1 sequence (Q5QD04 1-348 Y274W) with W274Y, W298A
The description is as above. Type of assay: cell-based. The settings on record: read-out: EC50 (mean ± S.D., n = 3).

Another assay deals with T5, sTAAR365 T7.42A (Petromyzon marinus, UniProt A0A678XMK4, T298A).
T5 sequence (A0A678XMK4 1-365 T298A): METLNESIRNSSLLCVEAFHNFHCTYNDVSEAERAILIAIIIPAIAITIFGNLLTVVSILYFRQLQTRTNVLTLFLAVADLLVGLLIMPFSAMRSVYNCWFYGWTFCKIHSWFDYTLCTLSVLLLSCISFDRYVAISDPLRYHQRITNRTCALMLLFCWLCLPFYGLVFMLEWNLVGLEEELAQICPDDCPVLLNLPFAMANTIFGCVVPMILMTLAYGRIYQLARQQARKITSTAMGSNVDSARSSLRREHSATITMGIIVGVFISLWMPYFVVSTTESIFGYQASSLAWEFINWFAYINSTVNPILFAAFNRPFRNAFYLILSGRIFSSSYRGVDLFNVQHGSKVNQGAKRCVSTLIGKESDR

The target in another assay is T6, sTAAR365 T7.42V (Petromyzon marinus, UniProt A0A678XMK4, T298V).
T6 sequence (A0A678XMK4 1-365 T298V): T5 sequence (A0A678XMK4 1-365 T298A) with A298V

The target in another assay is sTAAR365 Y7.43Q (Petromyzon marinus, UniProt A0A678XMK4, Y299Q). Kind of assay: cell-based.
For another assay, the target named is sTAAR365 Y7.43S (Petromyzon marinus, UniProt A0A678XMK4, Y299S). Kind of assay: cell-based.
For a further assay, the system named is sTAAR348. Particulars: expressed in HEK293T cells; cited from earlier work.

Residue numbers refer to the chain shown, from its start.

sTAAR365 Y7.43Q, sequence (A0A678XMK4 whole entry Y299Q): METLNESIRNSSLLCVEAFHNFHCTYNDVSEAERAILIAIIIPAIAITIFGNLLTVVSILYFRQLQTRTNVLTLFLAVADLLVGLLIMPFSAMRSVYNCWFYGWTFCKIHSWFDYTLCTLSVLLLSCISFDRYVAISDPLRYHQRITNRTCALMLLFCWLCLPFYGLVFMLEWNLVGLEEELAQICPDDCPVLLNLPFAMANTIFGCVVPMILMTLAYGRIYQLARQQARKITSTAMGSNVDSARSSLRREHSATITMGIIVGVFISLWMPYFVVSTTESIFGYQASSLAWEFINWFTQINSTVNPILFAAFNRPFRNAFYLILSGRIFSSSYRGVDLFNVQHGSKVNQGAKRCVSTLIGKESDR
sTAAR365 Y7.43S, sequence (A0A678XMK4 whole entry Y299S): as the sequence (A0A678XMK4 whole entry Y299Q) above, with Q299S counted along it

Regarding `NCCCCCN` [cadaverine], the EC50 on mTAAR9 Y6.51W is over 1000 µM; on mTAAR9 E7.36D, over 1000 µM; at mTAAR9 W7.40F it was 83 ± 35 µM; on mTAAR9 W7.40A, over 1000 µM; at sTAAR365 Y7.43Q it was 7 ± 0.3 µM; at sTAAR365 Y7.43S it was 124 ± 9 µM. In addition, the “increase of EC50 vs wild-type sTAAR365” value on sTAAR365 T7.42A and on sTAAR365 T7.42V was “over three” in each case.

As for `NCCCNCCCCNCCCN` [spermine], the “response of sTAAR348” value in the assay on sTAAR348 is “responds”.
